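Dose response: 5 concentrations. Exposure: 48 h. Format: 96-well plates. Endpoint: linear interpolation; highest concentration if not reached. TGI is the concentration that stops growth completely.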

Test systems include A498 renal; BT-549 breast; DU-145 prostate; EKVX NSCLC; HOP-62 NSCLC; KM12 colon; UACC-257 melanoma; UO-31 renal; TK-10 renal; HS 578T breast.
What all share (test): growth of human tumour cells (NCI), 48 h

Consider `Cc1cc(OP2(=O)NCc3ccncc3O2)ccc1Cl` (stereo not given), for which the TGI in the assay on A498 renal, with BT-549 breast, with DU-145 prostate, in the assay on EKVX NSCLC, in the assay on HOP-62 NSCLC and in the assay with KM12 colon was over 100 µM throughout. For the same compound, the TGI in the assay with UACC-257 melanoma and with UO-31 renal was over 100 µM each time.

On to `CC(=O)/C(=C/N1CC(=O)NC1=S)C(=O)Nc1ccccc1C`, for which the TGI with A498 renal, with BT-549 breast, with DU-145 prostate, in the assay with EKVX NSCLC, in the assay with HOP-62 NSCLC and with KM12 colon was over 100 µM each time. Also, the TGI in the assay with TK-10 renal, with UACC-257 melanoma and in the assay on UO-31 renal was over 100 µM throughout.

Turning to `N=C1c2ccccc2C(=O)c2c(NCCNCCO)ccc(O)c21`, the TGI in the assay on A498 renal is 33.8 µM; in the assay with EKVX NSCLC it was 46.9 µM; in the assay with HOP-62 NSCLC it was 22.5 µM; in the assay on KM12 colon it was 33.1 µM; with TK-10 renal, over 62.3 µM; in the assay on UACC-257 melanoma it was over 51.6 µM. The same compound showed a TGI in the assay on UO-31 renal of 32.7 µM.

Turning to `CCc1cc2c(cc1C(=O)CCC(=O)O)CC1(C2)Cc2cc(CC)c(C(=O)CCC(=O)O)cc2C1`, the TGI with A498 renal, in the assay with DU-145 prostate, in the assay on EKVX NSCLC, with HOP-62 NSCLC, in the assay on HS 578T breast and with KM12 colon was over 100 µM in each case. Further, the TGI in the assay with TK-10 renal, in the assay on UACC-257 melanoma and in the assay on UO-31 renal was over 100 µM throughout.

For the compound `C[C@H](CCC(=O)O)[C@H]1CC[C@H]2[C@@H]3[C@@H](O)C[C@@H]4C[C@H](O)CC[C@]4(C)[C@H]3C[C@H](O)[C@]12C`, the TGI in the assay on A498 renal, in the assay with DU-145 prostate, with EKVX NSCLC, in the assay on HOP-62 NSCLC, in the assay on HS 578T breast and in the assay with KM12 colon was over 100 µM throughout. Moreover, the TGI with TK-10 renal and with UACC-257 melanoma was over 100 µM each time.

Regarding `COC(=O)CC(C(C(=O)OCc1ccccc1)C(C)O)N1C(=O)OCC1c1ccccc1` (stereo not given), the TGI with A498 renal is over 100 µM; with EKVX NSCLC, over 100 µM; in the assay on HOP-62 NSCLC it was over 100 µM; in the assay with TK-10 renal it was over 100 µM; in the assay on UACC-257 melanoma it was over 100 µM; in the assay with UO-31 renal, 90.6 µM.

Consider `COC(=O)Cc1cccc2c(=O)c(S(=O)(=O)NC(=O)Nc3ccc(Cl)cc3)c(-c3ccccc3)oc12`, for which the TGI in the assay with BT-549 breast, in the assay on DU-145 prostate, in the assay on EKVX NSCLC, in the assay with HOP-62 NSCLC, in the assay with HS 578T breast and in the assay on KM12 colon was over 100 µM throughout. In addition, the TGI in the assay on TK-10 renal, in the assay with UACC-257 melanoma and with UO-31 renal was over 100 µM in each case.

Consider `CCCC(=O)Oc1c2ccsc2c(OC(=O)CCC)c2ccsc12`, for which the TGI in the assay with A498 renal turned out to be 7.34 µM; with BT-549 breast, 2.83 µM; with DU-145 prostate, 1.47 µM; with EKVX NSCLC, 5.2 µM; in the assay on HOP-62 NSCLC, 2.9 µM; in the assay on KM12 colon, 13.8 µM. Further, the TGI with TK-10 renal was 7.67 µM; with UACC-257 melanoma, 1.82 µM; in the assay on UO-31 renal, 5.11 µM.

Regarding `C=CC(=C)CCC(Br)C(C)(C)Br` (stereo not given), the TGI in the assay on BT-549 breast, in the assay on DU-145 prostate, with EKVX NSCLC, in the assay on HOP-62 NSCLC, with HS 578T breast and in the assay with KM12 colon was over 100 µM each time. Also, the TGI with TK-10 renal, in the assay with UACC-257 melanoma and in the assay with UO-31 renal was over 100 µM throughout.

Regarding `CCOP(=O)(OCC)/C(=C\n1ccc(=O)[nH]c1=S)C(=O)OC`, the TGI in the assay with A498 renal, in the assay on DU-145 prostate, in the assay with EKVX NSCLC, in the assay with HOP-62 NSCLC, in the assay with HS 578T breast and in the assay with KM12 colon was over 100 µM in each case. Further, the TGI with UACC-257 melanoma and in the assay with UO-31 renal was over 100 µM each time.

As to `N#CC12CC(C=O)=C(N)C1(C#N)CC(C=O)=C2N` (stereo not given), the TGI in the assay with A498 renal, in the assay with DU-145 prostate, with EKVX NSCLC, in the assay with HOP-62 NSCLC, with HS 578T breast and in the assay on KM12 colon was over 100 µM throughout. For the same compound, the TGI in the assay on TK-10 renal, in the assay with UACC-257 melanoma and in the assay on UO-31 renal was over 100 µM each time.

`COc1ccc(C/C=C(\C)CCO)cc1`: the TGI with BT-549 breast, in the assay on DU-145 prostate, with EKVX NSCLC, with HOP-62 NSCLC, in the assay with HS 578T breast and with KM12 colon was over 100 µM throughout. For the same compound, the TGI with TK-10 renal, in the assay with UACC-257 melanoma and in the assay on UO-31 renal was over 100 µM each time.

In the case of `CCOC(=O)c1ccc(NCc2ccc3nc(OC)c(OC)nc3c2)cc1`, the TGI in the assay on A498 renal, in the assay on DU-145 prostate, in the assay on EKVX NSCLC, with HOP-62 NSCLC, with KM12 colon and in the assay on UACC-257 melanoma was over 100 µM throughout. Further, in the assay with UO-31 renal, the TGI was over 100 µM.

Turning to `CS(=O)(=O)c1ccc(C(=O)O[C@@H]2C(=O)N3CC[C@H]4OC(O)[C@@H]2[C@H]43)cc1` (stereo not given in full), the TGI in the assay with A498 renal, with BT-549 breast, in the assay with DU-145 prostate, with EKVX NSCLC, with HOP-62 NSCLC and in the assay on KM12 colon was over 100 µM each time. The TGI with TK-10 renal, with UACC-257 melanoma and with UO-31 renal was over 100 µM in each case.

With `CN1/C(=C\N=O)C(C)(C)N(O)C1(C)C`, the TGI in the assay on BT-549 breast, with DU-145 prostate, in the assay on EKVX NSCLC, in the assay on HOP-62 NSCLC, with HS 578T breast and in the assay with KM12 colon was over 100 µM in each case. Further, the TGI in the assay on TK-10 renal, with UACC-257 melanoma and in the assay on UO-31 renal was over 100 µM throughout.
